Reference: article PMC8635623, “A click chemistry approach to pleuromutilin derivatives, evaluation of anti-MRSA activity and elucidation of binding mode by surface plasmon resonance and molecular docking” (Journal of Enzyme Inhibition and Medicinal Chemistry, 2021)
≈ marks a conversion by molar mass, not a printed value.

Key:
Assay in all cases: MIC/MBC by broth micro dilution
S. aureus AD3 = type: cell-based; conditions: Staphylococcus aureus, S. aureus AD3 (clinical strain); for MIC: 37 °C, 24 h; for MBC: lowest concentration reducing viable counts by 99.9%
Method: (§1) All the synthesised 1,2,3-triazole linked pleuromutilin analogues were screened for in vitro antibacterial activities against methicillin-resistant S. aureus (ATCC 43300), S. aureus (ATCC 29213), and two clinical strains of S. aureus (AD3 and 144, isolated from Guangdong Province, China). The MICs and MBCs of the synthesised pleuromutilin derivatives along with pleuromutilin and tiamulin used as the reference antibacterial drugs, were determined by the broth micro dilution methods according to the Clinical and Laboratory Standards Institute (CLSI)[18].
(§2) The MIC of these novel pleuromutilin derivatives against methicillin-resistant S. aureus (ATCC 43300), S. aureus (ATCC 29213), S. aureus (AD3) and S. aureus (144) were determined by using pleuromutilin and tiamulin as positive control. MIC values were determined by the broth micro dilution methods in accordance with the Clinical and Laboratory Standards Institute (2012). Stock solutions of these compounds were dissolved in methanol to make a stock solution with a concentration of 1280 µg/mL. The working solutions (640 µg/mL) were obtained by diluting stock solutions in sterile Mueller-Hinton (MH) broth. The bacterial solution and solutions of these compounds with a final concentration of 0.016–32 µg/mL were distributed into 96-well plates, with a total volume of 200 µL. Three parallel experiments for each compound concentration. The plates were incubated at 37 °C for 24 h.
(§3) MBC values were determined according to CLSI (2003) and previously report with slightly modification[18]^,[28]^,[31]. After obtaining the MIC results, the 96-well plates were incubated at 37 °C for 24 h. 100 µL of the bacterial solution from the wells with no visible growth was inoculated on MH agar plates. The MH agar plates were incubated at 37 °C for colony count. The MBC was determined as the lowest concentration of compound, which reduces the viable counts for 99.9%.

S. aureus 144 = type: cell-based; conditions: Staphylococcus aureus, S. aureus 144 (clinical strain); for MIC: 37 °C, 24 h; for MBC: lowest concentration reducing viable counts by 99.9%
Method: as §1, §2, §3

S. aureus ATCC 29213 = type: cell-based; conditions: Staphylococcus aureus; for MIC: ATCC29213, 37 °C, 24 h; for MBC: ATCC29213, lowest concentration reducing viable counts by 99.9%
Method: as §1, §2, §3

MRSA ATCC 43300 = type: cell-based, methicillin-resistant S. aureus; conditions: Staphylococcus aureus; for MIC: 37 °C, 24 h, read-out: MIC; for MBC: lowest concentration reducing viable counts by 99.9%
Method: as §1, §2, §3

MIC (S. aureus AD3) [µg/mL]	MIC (S. aureus 144) [µg/mL]	MIC (S. aureus ATCC 29213) [µg/mL]	MIC (MRSA ATCC 43300) [µg/mL]	Structure (SMILES)	MBC (S. aureus AD3) [µg/mL]	MBC (S. aureus 144) [µg/mL]	MBC (S. aureus ATCC 29213) [µg/mL]	MBC (MRSA ATCC 43300) [µg/mL]
8 (≈ 12.5 µM)	16 (≈ 25.1 µM)	8 (≈ 12.5 µM)	4 (≈ 6.27 µM)	C=C[C@]1(C)C[C@@H](OC(=O)Cn2cc(CN3CCN(c4ccc(Cl)cc4)CC3)nn2)[C@]2(C)[C@H](C)CC[C@]3(CCC(=O)[C@H]32)[C@@H](C)[C@@H]1O [Compound 58, 22-(2-(4-(4-(4-Chlorophenyl)-piperazin-1-yl)-methyl)-1H-1,2,3-triazol-1-yl)-22-deoxy pleuromutilin]	32 (≈ 50.1 µM)	32 (≈ 50.1 µM)	16 (≈ 25.1 µM)	4 (≈ 6.27 µM)
4 (≈ 6.31 µM)	8 (≈ 12.6 µM)	8 (≈ 12.6 µM)	4 (≈ 6.31 µM)	C=C[C@]1(C)C[C@@H](OC(=O)Cn2cc(CN3CCN(c4ccccc4OC)CC3)nn2)[C@]2(C)[C@H](C)CC[C@]3(CCC(=O)[C@H]32)[C@@H](C)[C@@H]1O [Compound 59, 22-(2-(4-(4-(2-Methoxyphenyl)-piperazin-1-yl)-methyl)-1H-1,2,3-triazol-1-yl)-22-deoxy pleuromutilin]	16 (≈ 25.2 µM)	16 (≈ 25.2 µM)	8 (≈ 12.6 µM)	4 (≈ 6.31 µM)
4 (≈ 6.31 µM)	8 (≈ 12.6 µM)	8 (≈ 12.6 µM)	4 (≈ 6.31 µM)	C=C[C@]1(C)C[C@@H](OC(=O)Cn2cc(CN3CCN(c4cccc(OC)c4)CC3)nn2)[C@]2(C)[C@H](C)CC[C@]3(CCC(=O)[C@H]32)[C@@H](C)[C@@H]1O [Compound 60, 22-(2-(4-(4-(3-Methoxyphenyl)-piperazin-1-yl)-methyl)-1H-1,2,3-triazol-1-yl)-22-deoxy pleuromutilin]	16 (≈ 25.2 µM)	16 (≈ 25.2 µM)	8 (≈ 12.6 µM)	8 (≈ 12.6 µM)
4 (≈ 6.31 µM)	8 (≈ 12.6 µM)	4 (≈ 6.31 µM)	4 (≈ 6.31 µM)	C=C[C@]1(C)C[C@@H](OC(=O)Cn2cc(CN3CCN(c4ccc(OC)cc4)CC3)nn2)[C@]2(C)[C@H](C)CC[C@]3(CCC(=O)[C@H]32)[C@@H](C)[C@@H]1O [Compound 61, 22-(2-(4-(4-(4-Methoxyphenyl)-piperazin-1-yl)-methyl)-1H-1,2,3-triazol-1-yl)-22-deoxy pleuromutilin]	8 (≈ 12.6 µM)	16 (≈ 25.2 µM)	8 (≈ 12.6 µM)	16 (≈ 25.2 µM)
4 (≈ 6.45 µM)	8 (≈ 12.9 µM)	8 (≈ 12.9 µM)	4 (≈ 6.45 µM)	C=C[C@]1(C)C[C@@H](OC(=O)Cn2cc(CN3CCN(c4ccccc4O)CC3)nn2)[C@]2(C)[C@H](C)CC[C@]3(CCC(=O)[C@H]32)[C@@H](C)[C@@H]1O [Compound 65, 22-(2-(4-(4-(2-Hydroxyphenyl)-piperazin-1-yl)-methyl)-1H-1,2,3-triazol-1-yl)-22-deoxy pleuromutilin]	8 (≈ 12.9 µM)	16 (≈ 25.8 µM)	8 (≈ 12.9 µM)	8 (≈ 12.9 µM)
8 (≈ 12.9 µM)	8 (≈ 12.9 µM)	8 (≈ 12.9 µM)	4 (≈ 6.45 µM)	C=C[C@]1(C)C[C@@H](OC(=O)Cn2cc(CN3CCN(c4cccc(O)c4)CC3)nn2)[C@]2(C)[C@H](C)CC[C@]3(CCC(=O)[C@H]32)[C@@H](C)[C@@H]1O [Compound 66, 22-(2-(4-(4-(3-Hydroxyphenyl)-piperazin-1-yl)-methyl)-1H-1,2,3-triazol-1-yl)-22-deoxy pleuromutilin]	32 (≈ 51.6 µM)	16 (≈ 25.8 µM)	16 (≈ 25.8 µM)	8 (≈ 12.9 µM)
16 (≈ 25.8 µM)	32 (≈ 51.6 µM)	16 (≈ 25.8 µM)	8 (≈ 12.9 µM)	C=C[C@]1(C)C[C@@H](OC(=O)Cn2cc(CN3CCN(c4ccc(O)cc4)CC3)nn2)[C@]2(C)[C@H](C)CC[C@]3(CCC(=O)[C@H]32)[C@@H](C)[C@@H]1O [Compound 67, 22-(2-(4-(4-(4-Hydroxyphenyl)-piperazin-1-yl)-methyl)-1H-1,2,3-triazol-1-yl)-22-deoxy pleuromutilin]	> 32	32 (≈ 51.6 µM)	32 (≈ 51.6 µM)	16 (≈ 25.8 µM)
8 (≈ 12.8 µM)	8 (≈ 12.8 µM)	8 (≈ 12.8 µM)	4 (≈ 6.42 µM)	C=CC1(C)CC(OC(=O)Cn2cc(CN(C3CCCCC3)C3CCCCC3)nn2)C2(C)C(C)CCC3(CCC(=O)C32)C(C)C1O (centres unmarked) [Compound 81, 22-(2-(4-(Dicyclohexylamino)methyl)-1H-1,2,3-triazol-1-yl)-22-deoxy pleuromutilin]	32 (≈ 51.4 µM)	16 (≈ 25.7 µM)	16 (≈ 25.7 µM)	8 (≈ 12.8 µM)
16 (≈ 30.3 µM)	16 (≈ 30.3 µM)	16 (≈ 30.3 µM)	8 (≈ 15.1 µM)	C=CC1(C)CC(OC(=O)Cn2cc(CN3CCOCC3)nn2)C2(C)C(C)CCC3(CCC(=O)C32)C(C)C1O (centres unmarked) [Compound 82, 22-(2-(4-(Morpholinomethyl)methyl)-1H-1,2,3-triazol-1-yl)-22-deoxy pleuromutilin]	32 (≈ 60.5 µM)	32 (≈ 60.5 µM)	16 (≈ 30.3 µM)	8 (≈ 15.1 µM)

More lines, now with the values behind:

Structure (SMILES)	MIC (S. aureus AD3) [µg/mL]	MIC (S. aureus 144) [µg/mL]	MIC (S. aureus ATCC 29213) [µg/mL]	MIC (MRSA ATCC 43300) [µg/mL]	MBC (S. aureus AD3) [µg/mL]	MBC (S. aureus 144) [µg/mL]	MBC (S. aureus ATCC 29213) [µg/mL]	MBC (MRSA ATCC 43300) [µg/mL]
C=C[C@]1(C)C[C@@H](OC(=O)Cn2cc(CN3CCN(C)CC3)nn2)[C@]2(C)[C@H](C)CC[C@]3(CCC(=O)[C@H]32)[C@@H](C)[C@@H]1O [Compound 48, 22-(2-(4-(4-Methyl-piperazin-1-yl)-methyl)-1H-1,2,3-triazol-1-yl)-22-deoxy pleuromutilin]	16 (≈ 29.5 µM)	32 (≈ 59.1 µM)	16 (≈ 29.5 µM)	8 (≈ 14.8 µM)	32 (≈ 59.1 µM)	32 (≈ 59.1 µM)	32 (≈ 59.1 µM)	16 (≈ 29.5 µM)
C=C[C@]1(C)C[C@@H](OC(=O)Cn2cc(CN3CCN(c4ccccc4)CC3)nn2)[C@]2(C)[C@H](C)CC[C@]3(CCC(=O)[C@H]32)[C@@H](C)[C@@H]1O [Compound 49, 22-(2-(4-(4-Phenyl-piperazin-1-yl)-methyl)-1H-1,2,3-triazol-1-yl)-22-deoxy pleuromutilin]	8 (≈ 13.2 µM)	8 (≈ 13.2 µM)	8 (≈ 13.2 µM)	4 (≈ 6.62 µM)	16 (≈ 26.5 µM)	16 (≈ 26.5 µM)	8 (≈ 13.2 µM)	4 (≈ 6.62 µM)
C=C[C@]1(C)C[C@@H](OC(=O)Cn2cc(CN3CCN(c4ccc(C)cc4)CC3)nn2)[C@]2(C)[C@H](C)CC[C@]3(CCC(=O)[C@H]32)[C@@H](C)[C@@H]1O [Compound 52, 22-(2-(4-(4-(p-Tolyl)-piperazin-1-yl)-methyl)-1H-1,2,3-triazol-1-yl)-22-deoxy pleuromutilin]	8 (≈ 12.9 µM)	8 (≈ 12.9 µM)	8 (≈ 12.9 µM)	4 (≈ 6.47 µM)	32 (≈ 51.8 µM)	16 (≈ 25.9 µM)	8 (≈ 12.9 µM)	8 (≈ 12.9 µM)
C=C[C@]1(C)C[C@@H](OC(=O)Cn2cc(CN3CCN(c4cccc(F)c4)CC3)nn2)[C@]2(C)[C@H](C)CC[C@]3(CCC(=O)[C@H]32)[C@@H](C)[C@@H]1O [Compound 54, 22-(2-(4-(4-(3-Fluorophenyl)-piperazin-1-yl)-methyl)-1H-1,2,3-triazol-1-yl)-22-deoxy pleuromutilin]	8 (≈ 12.9 µM)	8 (≈ 12.9 µM)	8 (≈ 12.9 µM)	4 (≈ 6.43 µM)	16 (≈ 25.7 µM)	16 (≈ 25.7 µM)	8 (≈ 12.9 µM)	4 (≈ 6.43 µM)
C=C[C@]1(C)C[C@@H](OC(=O)Cn2cc(CN3CCN(c4ccc(F)cc4)CC3)nn2)[C@]2(C)[C@H](C)CC[C@]3(CCC(=O)[C@H]32)[C@@H](C)[C@@H]1O [Compound 55, 22-(2-(4-(4-(4-Fluorophenyl)-piperazin-1-yl)-methyl)-1H-1,2,3-triazol-1-yl)-22-deoxy pleuromutilin]	8 (≈ 12.9 µM)	8 (≈ 12.9 µM)	8 (≈ 12.9 µM)	4 (≈ 6.43 µM)	16 (≈ 25.7 µM)	32 (≈ 51.5 µM)	8 (≈ 12.9 µM)	4 (≈ 6.43 µM)
C=C[C@]1(C)C[C@@H](OC(=O)Cn2cc(CN3CCN(c4ccccc4Cl)CC3)nn2)[C@]2(C)[C@H](C)CC[C@]3(CCC(=O)[C@H]32)[C@@H](C)[C@@H]1O [Compound 56, 22-(2-(4-(4-(2-Chlorophenyl)-piperazin-1-yl)-methyl)-1H-1,2,3-triazol-1-yl)-22-deoxy pleuromutilin]	16 (≈ 25.1 µM)	16 (≈ 25.1 µM)	8 (≈ 12.5 µM)	4 (≈ 6.27 µM)	32 (≈ 50.1 µM)	32 (≈ 50.1 µM)	32 (≈ 50.1 µM)	4 (≈ 6.27 µM)
C=C[C@]1(C)C[C@@H](OC(=O)Cn2cc(CN3CCN(c4cccc(Cl)c4)CC3)nn2)[C@]2(C)[C@H](C)CC[C@]3(CCC(=O)[C@H]32)[C@@H](C)[C@@H]1O [Compound 57, 22-(2-(4-(4-(3-Chlorophenyl)-piperazin-1-yl)-methyl)-1H-1,2,3-triazol-1-yl)-22-deoxy pleuromutilin]	16 (≈ 25.1 µM)	8 (≈ 12.5 µM)	8 (≈ 12.5 µM)	4 (≈ 6.27 µM)	32 (≈ 50.1 µM)	16 (≈ 25.1 µM)	16 (≈ 25.1 µM)	8 (≈ 12.5 µM)
